From patent US10273290B2, “Hydrocarbon double-stapled stabilized HIV-1 GP41 heptad repeat domain peptides” (DANA-FARBER CANCER INSTITUTE, INC., priority 2009, dated 2019)
Bridge positions count the residues as written; N and C are the ends. Square brackets hold non-standard residues; d marks the D form. Peptide text beside a SMILES is read from it. S5 = C=CCCC[C@](C)(N)C(=O)O; Nle = CCCC[C@H](N)C(=O)O

Legend:
[1] = tested on: resistant primary R5 isolate YU2; test: Luciferase-based HIV-1 infectivity assay, YU2; format: cell-based; conditions: compared to T649v
Text: Also the direct inhibitory activity of modified polypeptides and the antibodies targeted thereto can be quantified based upon their capacity to directly block HIV infection of CD4-positive and CCR5-expressing canine thymus cells. Recombinant HIV-1 viruses (eg. HXBc2, YU2, and additional strains available through the NIH AIDS Research and Reference Reagent Program) expressing firefly luciferase and containing the indicated envelope glycoproteins can be used to infect Cf2Th-CD4-CCR5/CXCR4 cells in the presence of serially diluted modified HIV-1 gp41 polypeptides or antibodies targeted thereto After 48 hours, the cells are lysed and luciferase activity is quantified (Si, Z. H., M. Cayabyab, and J. Sodroski, Journal of Virology, 2001. 75(9): p. 4208-4218 Si, Z. H., et al., PNAS, 2004. 101(14): p. 5036-5041). The identical experiment is performed with the amphotropic murine leukemia virus (AMLV), to monitor for any nonspecific effects of the modified polypeptides or antibodies. […]
HIV-1 infectivity assays were performed using known methods (Madani et al., 2007 Inhibition of human immunodeficiency virus envelope glycoprotein-mediated single cell lysis by low-molecular-weight antagonists of viral entry. J Virol, 81: 532-538; and Si et al., 2001 Envelope glycoprotein determinants of neutralization resistance in a simian-human immunodeficiency virus (SHIV-HXBc2P 3.2) derived by passage in monkeys. J Virol, 75:4208-4218; both incorporated herein by reference). […] D-luciferin (50 μL of 1 mM stock in 100 μL luciferin buffer) is then added to each well and luciferase activity measured using a luminometer (EG&G Berthold).
To assess the functional impact of hydrocarbon stapling on gp41-based fusion inhibitor activity, SAH-gp41 peptides were tested and compared to their unmodified counterparts in a luciferase-based HIV-1 infectivity assay. Recombinant HIV-1 bearing the envelope glycoproteins from three distinct HIV-1 strains, HXBc2, ADA, and HXBc2P 3.2, and a negative control virus bearing the amphotropic murine leukemia virus (A-MLV) envelope glycoproteins, were evaluated. […]

[2] = Chymotrypsin, pH 7
Text: Table printed on a drawing sheet, FIG. 17C
Title: Chymotrypsin, pH 7
First reader's note: The table also serves as the legend of the plot of fraction intact over time; the line and marker symbols are left out.

[3] = tested on: pepsin; test: Protease resistance assay, pepsin at pH 2; conditions: pepsin (isolated protease) in buffer, pH 2
Description: The DAD signal was set to 280 nm with an 8 nm bandwidth and MSD set to scan mode with one channel at (M+2H)/2, +1 mass units and the other at (M+3H)/3, +1 mass units. […] Reaction samples were composed of 5 μL peptide in DMSO (1 mM stock) and 195 μL of buffer consisting of 50 mM phosphate buffer pH 7.4 containing 2 mM CaCl2. Upon injection of the 0 hr time point sample, 2 μL of 50 ng/μL chymotrypsin (Sigma) was added and the amount of intact peptide quantitated by serial injection over time. An internal control of acetylated tryptophan carboxamide at a concentration of 100 μM was used to normalize each MSD data point. A plot of MSD area versus time yielded an exponential decay curve and half-lives were determined by nonlinear regression analysis using Prism software (GraphPad). The assay was also performed using trypsin and pepsin in their appropriate buffer conditions.

[4] = target: T1, chymotrypsin (Bos taurus, UniProt P00766); test: Protease resistance assay, chymotrypsin (LC/MS); format: in vitro ADME; conditions: pH 7.4, 0.5 chymotrypsin, peptide 25 μM
T1 construct: purchased Sigma
Description: The DAD signal was set to 280 nm with an 8 nm bandwidth and MSD set to scan mode with one channel at (M+2H)/2, +1 mass units and the other at (M+3H)/3, +1 mass units. Integration of each MSD signal yielded areas under the curve of >10^8 counts. Reaction samples were composed of 5 μL peptide in DMSO (1 mM stock) and 195 μL of buffer consisting of 50 mM phosphate buffer pH 7.4 containing 2 mM CaCl2. Upon injection of the 0 hr time point sample, 2 μL of 50 ng/μL chymotrypsin (Sigma) was added and the amount of intact peptide quantitated by serial injection over time. An internal control of acetylated tryptophan carboxamide at a concentration of 100 μM was used to normalize each MSD data point. A plot of MSD area versus time yielded an exponential decay curve and half-lives were determined by nonlinear regression analysis using Prism software (GraphPad).

[5] = Circular dichroism, α-helical content; format: physicochemical
Description: The α-helicity of stapled modified polypeptides was compared to their unmodified counterparts by circular dichroism. CD spectra were obtained on an Aviv spectropolarimeter at 20° C. using the following standard measurement parameters: wavelength, 190-260 nm; step resolution, 0.5 nm; speed, 20 nm/sec; accumulations, 10; response, 1 sec; bandwidth, 1 nm; path length, 0.1 cm. The α-helical content of each peptide was calculated by dividing the mean residue ellipticity [θ]222obs, by the reported [θ]222obs for a model helical peptide (Forood, B., E. J. Feliciano, and K. P. Nambiar, PNAS, 1993. 90(3): p. 838-842; J. Martin Scholtz, Biopolymers, 1991. 31(13): p. 1463-1470; Lawless, M. K., et al., Biochemistry, 1996. 35(42): p. 13697-13708) or using, for example, the Aviv machine using CDNN software developed by Brohm in order to deduce five different secondary structure fractions (helix, parallel and antiparallel beta-sheet, beta-turn and random coil). Protein Engineering, 1992. 5(3); p. 191-195
In order to evaluate secondary structure improvements of hydrocarbon-stapled peptides, we record and analyze circular dichroism (CD) spectra on an Aviv Biomedical spectrometer (model 410), as described above. […] The CD spectra are initially plotted as wavelength versus millidegree. […] After conversion to mean residue ellipticity, percent α-helicity can be calculated using the equation, % helicity=100×[θ]222/^max[θ]222, where ^max[θ]222=−40,000×[1−(2.5/number of amino acid residues)]. We also employ the curve-fitting CDDN software that is bundled with our spectrometer to calculate the relative fractions of secondary structure including α-helix, parallel and antiparallel β-sheet, β-turn and random coil.

Row | Compound | anti-YU2 activity, in words [1] | Half-Life [2] [h] | half-life at 25 μM [3] [h] | Half-Life [4] [h] | % helicity at pH 2 ([5]; pH 2) [%] | % helicity at pH 7 ([5]; pH 7) [%]
1 | CCCC[C@H](NC(C)=O)C(=O)N[C@H](C(=O)N[C@@H](Cc1c[nH]c2ccccc12)C(=O)N[C@@]1(C)CCCC=CCCC[C@@](C)(C(=O)N[C@@H](CCC(=O)O)C(=O)N[C@H](C(=O)N[C@@H](CC(N)=O)C(=O)N[C@@H](CC(N)=O)C(=O)N[C@@H](Cc2ccc(O)cc2)C(=O)N[C@H](C(=O)N[C@@H](CO)C(=O)N[C@@H](CC(C)C)C(=O)N[C@H](C(=O)N[C@@H](Cc2c[nH]cn2)C(=O)N[C@@H](CO)C(=O)N[C@@H](CC(C)C)C(=O)N[C@H](C(=O)N[C@@H](CCC(=O)O)C(=O)N[C@@H](CCC(=O)O)C(=O)N[C@@H](CO)C(=O)N[C@@H](CCC(N)=O)C(=O)N[C@@H](CC(N)=O)C(=O)N[C@@H](CCC(N)=O)C(=O)N[C@@H](CCC(N)=O)C(=O)N[C@@H](CCC(=O)O)C(=O)N[C@@H](CCCCN)C(=O)N[C@@H](CC(N)=O)C(=O)N[C@@H](CCC(=O)O)C(=O)N[C@@H](CCC(N)=O)C(=O)N[C@@H](CCC(=O)O)C(=O)N[C@@H](CC(C)C)C(=O)N[C@@H](CC(C)C)C(=O)N[C@@H](CCC(=O)O)C(N)=O)[C@@H](C)CC)[C@@H](C)CC)[C@@H](C)O)[C@@H](C)CC)NC(=O)[C@H](CC(=O)O)NC(=O)[C@H](Cc2c[nH]c3ccccc23)NC(=O)[C@H](CCC(=O)O)NC1=O)[C@@H](C)O [SAH-gp41(626-662)(A)] (Ac-[Nle]TW[S5]EWD[S5]EINNYTSLIHSLIEESQNQQEKNEQELLE-NH2; staple 4-8; N-terminus and C-terminus assumed) | enhanced anti-YU2 activity | 1.93 | 1.97 | 1.32 |  | 
2 | CCCC[C@H](NC(C)=O)C(=O)N[C@H](C(=O)N[C@@H](Cc1c[nH]c2ccccc12)C(=O)N[C@@H](CCCC)C(=O)N[C@@H](CCC(=O)O)C(=O)N[C@@H](Cc1c[nH]c2ccccc12)C(=O)N[C@@H](CC(=O)O)C(=O)N[C@@H](CCCNC(=N)N)C(=O)N[C@@H](CCC(=O)O)C(=O)N[C@H](C(=O)N[C@@H](CC(N)=O)C(=O)N[C@@H](CC(N)=O)C(=O)N[C@@H](Cc1ccc(O)cc1)C(=O)N[C@H](C(=O)N[C@@H](CO)C(=O)N[C@@H](CC(C)C)C(=O)N[C@H](C(=O)N[C@@H](Cc1c[nH]cn1)C(=O)N[C@@H](CO)C(=O)N[C@@H](CC(C)C)C(=O)N[C@H](C(=O)N[C@@H](CCC(=O)O)C(=O)N[C@@H](CCC(=O)O)C(=O)N[C@@H](CO)C(=O)N[C@@H](CCC(N)=O)C(=O)N[C@@H](CC(N)=O)C(=O)N[C@@H](CCC(N)=O)C(=O)N[C@@]1(C)CCCC=CCCC[C@@](C)(C(=O)N[C@@H](CCC(N)=O)C(=O)N[C@@H](CCC(=O)O)C(=O)N[C@@H](CC(C)C)C(=O)N[C@@H](CC(C)C)C(=O)N[C@@H](CCC(=O)O)C(N)=O)NC(=O)[C@H](CC(N)=O)NC(=O)[C@H](CCCCN)NC(=O)[C@H](CCC(=O)O)NC1=O)[C@@H](C)CC)[C@@H](C)CC)[C@@H](C)O)[C@@H](C)CC)[C@@H](C)O [SAH-gp41(626-662)(F)] (Ac-[Nle]TW[Nle]EWDREINNYTSLIHSLIEESQNQ[S5]EKN[S5]QELLE-NH2; staple 28-32; N-terminus and C-terminus assumed) | enhanced anti-YU2 activity | 1.28 | 2.15 | 1.7 | 82 | 63
